According to patent publication US20090156577A1, “7-AMINO ALKYLIDENYL-HETEROCYCLIC QUINOLONES AND NAPHTHYRIDONES” (priority 2004, published 2009):
Values after ≈ are worked out from the molar mass of the structure shown. Where two headings read alike, the source gives them in different places.

Tested on: pathogenic bacteria
Test: MIC by microdilution broth method (NCCLS M7-A4), in vitro antibacterial activity
Assay type: cell-based
Outline: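 Broth microdilution per NCCLS M7-A4: two-fold serial dilutions in cation-adjusted Mueller-Hinton broth, inoculum about 5×10^4 CFU/well. Trays incubated 16–20 h at 35 °C. MIC read by comparing growth against no-compound growth controls.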

[1] = Staphylococcus aureus, Organism A: Staphylococcus aureus OC4172, read-out: MIC
[2] = Streptococcus pneumoniae, ATCC49619, Organism E: Streptococcus pneumoniae ATCC 49619, read-out: MIC
[3] = Streptococcus pneumoniae, Organism B: fluoroquinolone-resistant clinical isolate of Streptococcus pneumoniae (QRDR amino acid substitutions)
[4] = Streptococcus pneumoniae, Organism C: fluoroquinolone-resistant clinical isolate of Streptococcus pneumoniae (QRDR amino acid substitutions)
[5] = Streptococcus pneumoniae, Organism D: fluoroquinolone-resistant clinical isolate of Streptococcus pneumoniae (QRDR amino acid substitutions)

SMILES | MIC [1] [µg/mL] | MIC [2] [µg/mL] | MIC [3] [µg/mL] | MIC [4] [µg/mL] | MIC [5] [µg/mL] | MIC (Organism A: Staphylococcus aureus OC4172) [µg/mL] | MIC (Organism C: fluoroquinolone-resistant clinical isolate of Streptococcus pneumoniae (QRDR amino acid substitutions)) [µg/mL] | MIC (Organism D: fluoroquinolone-resistant clinical isolate of Streptococcus pneumoniae (QRDR amino acid substitutions)) [µg/mL] | MIC (Organism E: Streptococcus pneumoniae ATCC 49619) [µg/mL]
C[C@H]1COc2c(N3CCC/C(=C(\Cl)CN)CC3)c(F)cc3c(=O)c(C(=O)O)cn1c23 [Compound 373, (3S)-9-[(E)-4-(2-Amino-1-chloro-ethylidene)-azepan-1-yl]-8-fluoro-3-methyl-6-oxo-2,3-dihydro-6H-1-oxa-3a-aza-phenalene-5-carboxylic Acid] | 0.06 (≈ 0.138 µM) | 0.12 (≈ 0.275 µM) | 0.5 (≈ 1.15 µM) | 2 (≈ 4.59 µM) | 1 (≈ 2.29 µM) | – | – | – | –
NC/C(Cl)=C1\CCCN(c2cc3c(cc2F)c(=O)c(C(=O)O)cn3C2CC2)C1 [Compound 258, (Z)-7-[3-(2-Amino-1-chloro-ethylidene)-piperidin-1-yl]-1-cyclopropyl-6-fluoro-4-oxo-1,4-dihydro-quinoline-3-carboxylic acid] | ≤ 4 | 8 (≈ 19.7 µM) | 8 (≈ 19.7 µM) | > 16 | > 16 | – | – | – | –
NC/C(Cl)=C1\CCCN(c2c(F)cc3c(=O)c(C(=O)O)cn(C4CC4)c3c2OC(F)F)C1 [Compound 447, (Z)-7-[3-(2-Amino-1-chloro-ethylidene)-piperidin-1-yl]-1-cyclopropyl-8-difluoromethoxy-6-fluoro-4-oxo-1,4-dihydro-quinoline-3-carboxylic acid] | 0.25 (≈ 0.53 µM) | 1 (≈ 2.12 µM) | – | 16 (≈ 33.9 µM) | 1 (≈ 2.12 µM) | – | – | – | –
NC/C(F)=C1/COCCN(c2cc3c(cc2F)c(=O)c(C(=O)O)cn3C2CC2)C1 [Compound 503, (Z)-7-[6-(2-Amino-1-fluoro-ethylidene)-[1,4]oxazepan-4-yl]-1-cyclopropyl-6-fluoro-4-oxo-1,4-dihydro-quinoline-3-carboxylic acid] | 4 (≈ 9.87 µM) | 16 (≈ 39.5 µM) | – | > 16 | > 16 | – | – | – | –
CN(CC(Cl)=C1CCN(c2c(F)cc3c(=O)c(C(=O)O)cn(C4CC4)c3c2OC(F)F)CC1)Cc1ccccc1 [Compound 206, 7-{4-[2-(Benzyl-methyl-amino)-1-chloro-ethylidene]-piperidin-1-yl}-1-cyclopropyl-8-difluoromethoxy-6-fluoro-4-oxo-1,4-dihydro-quinoline-3-carboxylic acid] | 1 (≈ 1.74 µM) | 4 (≈ 6.94 µM) | – | 4 (≈ 6.94 µM) | 4 (≈ 6.94 µM) | – | – | – | –
COc1c(N2CCC/C(=C(\C)CN)C2)c(F)cc2c(=O)c(C(=O)O)cn([C@@H]3C[C@@H]3F)c12 [Compound 410, (Z)-7-[3-(2-Amino-1-methyl-ethylidene)-piperidin-1-yl]-6-fluoro-(1R,2S)-1-(2-fluoro-cyclopropyl)-8-methoxy-4-oxo-1,4-dihydro-quinoline-3-carboxylic acid] | ≤ 0.015 | 0.06 (≈ 0.138 µM) | – | 0.5 (≈ 1.15 µM) | 1 (≈ 2.31 µM) | – | – | – | –
C[C@H]1COc2c(N3CC(=CCN)C3)c(F)cc3c(=O)c(C(=O)O)cn1c23 [Compound 365, (S)-9-[3-(2-Amino-ethylidene)-azetidin-1-yl]-8-fluoro-3-methyl-6-oxo-2,3-dihydro-6H-1-oxa-3a-aza-phenalene-5-carboxylic Acid] | 0.12 (≈ 0.334 µM) | 2 (≈ 5.57 µM) | – | > 16 | > 16 | – | – | – | –
Cc1c(F)c(N2CCC/C(=C/CN)C2)cc2c1c(=O)c(C(=O)O)cn2C1CC1 [Compound 427, (Z)-7-[3-(2-Amino-ethylidene)-piperidin-1-yl]-1-cyclopropyl-6-fluoro-5-methyl-4-oxo-1,4-dihydro-quinoline-3-carboxylic acid] | ≤ 0.015 | 0.12 (≈ 0.311 µM) | 2 (≈ 5.19 µM) | 4 (≈ 10.4 µM) | 1 (≈ 2.59 µM) | – | – | – | –
CCNCC(F)=C1CCN(c2c(F)cc3c(=O)c(C(=O)O)cn(C4CC4)c3c2OC)CC1 [Compound 214, 1-Cyclopropyl-7-[4-(2-ethylamino-1-fluoro-ethylidene)-piperidin-1-yl]-6-fluoro-8-methoxy-4-oxo-1,4-dihydro-quinoline-3-carboxylic acid] | 0.06 (≈ 0.134 µM) | 0.25 (≈ 0.559 µM) | – | 1 (≈ 2.23 µM) | 1 (≈ 2.23 µM) | – | – | – | –
NC/C(F)=C1\CCCN(c2cc3c(cc2F)c(=O)c(C(=O)O)cn3C2CC2)C1 [Compound 382, (Z)-7-[3-(2-Amino-1-fluoro-ethylidene)-piperidin-1-yl]-1-cyclopropyl-6-fluoro-4-oxo-1,4-dihydro-quinoline-3-carboxylic acid] | 0.5 (≈ 1.28 µM) | 2 (≈ 5.14 µM) | 8 (≈ 20.5 µM) | > 16 | 16 (≈ 41.1 µM) | – | – | – | –
COc1c(N2CCC(=CCN)CC2)c(F)cc2c(=O)c(C(=O)O)cn(C3CC3)c12 [Compound 212, 7-[4-(2-Amino-ethylidene)-piperidin-1-yl]-1-cyclopropyl-6-fluoro-8-methoxy-4-oxo-1,4-dihydro-quinoline-3-carboxylic acid] | 0.06 (≈ 0.149 µM) | 0.12 (≈ 0.299 µM) | 1 (≈ 2.49 µM) | 2 (≈ 4.98 µM) | 2 (≈ 4.98 µM) | – | – | – | –
CNCC(C)=C1CCN(c2nc3c(cc2F)c(=O)c(C(=O)O)cn3C2CC2)CC1 [Compound 217, 1-Cyclopropyl-6-fluoro-7-[4-(1-methyl-2-methylamino-ethylidene)-piperidin-1-yl]-4-oxo-1,4-dihydro-[1,8]naphthyridine-3-carboxylic acid] | – | – | – | – | – | 0.25 (≈ 0.624 µM) | 2 (≈ 4.99 µM) | 2 (≈ 4.99 µM) | 0.25 (≈ 0.624 µM)
NCC(Cl)=C1CCN1c1cc2c(cc1F)c(=O)c(C(=O)O)cn2C1CC1 [Compound 76, 7-[4-(2-Amino-1-chloro-ethylidene)-azetidin-1-yl}-1-cyclopropyl-6-fluoro-4-oxo-1,4-dihydro-quinoline-3-carboxylic acid] | 0.03 (≈ 0.0794 µM) | 0.25 (≈ 0.662 µM) | 2 (≈ 5.29 µM) | 1 (≈ 2.65 µM) | 2 (≈ 5.29 µM) | – | – | – | –
COc1c(N2CCC(=C(F)CN(C)C)CC2)c(F)cc2c(=O)c(C(=O)O)cn(C3CC3)c12 [Compound 199, 1-Cyclopropyl-7-[4-(2-dimethylamino-1-fluoro-ethylidene)-piperidin-1-yl]-6-fluoro-8-methoxy-4-oxo-1,4-dihydro-quinoline-3-carboxylic acid] | 0.06 (≈ 0.134 µM) | 0.25 (≈ 0.559 µM) | 1 (≈ 2.23 µM) | 2 (≈ 4.47 µM) | 1 (≈ 2.23 µM) | – | – | – | –
COc1c(N2CCC/C(=C(/Cl)CN)C2)c(F)cc2c(=O)c(C(=O)O)cn([C@@H]3C[C@@H]3F)c12 [Compound 449, (Z)-7-[3-(2-Amino-1-chloro-ethylidene)-piperidin-1-yl]-6-fluoro-(1R,2S)-1-(2-fluoro-cyclopropyl)-8-methoxy-4-oxo-1,4-dihydro-quinoline-3-carboxylic acid] | 0.25 (≈ 0.551 µM) | 2 (≈ 4.41 µM) | – | > 16 | 16 (≈ 35.3 µM) | – | – | – | –
COc1c(N2CC(=C(F)CN)C2)ccc2c(=O)c(C(=O)O)cn(C3CC3)c12 [Compound 274, 7-[3-(2-amino-1-fluoro-ethylidene)-azetidin-1-yl]-1-cyclopropyl-8-methoxy-4-oxo-1,4-dihydro-quinoline-3-carboxylic acid] | 0.06 (≈ 0.161 µM) | 1 (≈ 2.68 µM) | 4 (≈ 10.7 µM) | 1 (≈ 2.68 µM) | – | – | – | – | –
CC1(C)CN(c2nc3c(cc2F)c(=O)c(C(=O)O)cn3C2CC2)CCC1=C(Br)CN [Compound 176, 7-[4-(2-Amino-1-bromo-ethylidene)-3,3-dimethyl-piperidin-1-yl]-1-cyclopropyl-6-fluoro-4-oxo-1,4-dihydro-[1,8]naphthyridine-3-carboxylic acid] | 0.25 (≈ 0.522 µM) | 0.12 (≈ 0.25 µM) | 0.5 (≈ 1.04 µM) | 1 (≈ 2.09 µM) | 1 (≈ 2.09 µM) | – | – | – | –
NC/C(F)=C1/CCCN(c2c(F)cc3c(=O)c(C(=O)O)cn(C4CC4)c3c2OCF)C1 [Compound 457, 7-[(E)-3-(2-Amino-1-fluoro-ethylidene)-piperidin-1-yl]-1-cyclopropyl-6-fluoro-8-fluoromethoxy-4-oxo-1,4-dihydro-quinoline-3-carboxylic Acid] | 0.25 (≈ 0.572 µM) | 1 (≈ 2.29 µM) | 2 (≈ 4.57 µM) | 8 (≈ 18.3 µM) | 4 (≈ 9.14 µM) | – | – | – | –
CC(CN)=C1CN(c2cc3c(c(C)c2F)c(=O)c(C(=O)O)cn3C2CC2)C1 [Compound 367, 7-[3-(2-Amino-1-methyl-ethylidene)-azetidin-1-yl]-1-cyclopropyl-6-fluoro-5-methyl-4-oxo-1,4-dihydro-quinoline-3-carboxylic Acid] | ≤ 0.015 | 0.12 (≈ 0.323 µM) | 0.25 (≈ 0.673 µM) | 1 (≈ 2.69 µM) | 1 (≈ 2.69 µM) | – | – | – | –
COc1c(N2CCC(=C(F)CN)C(C)(C)C2)c(F)cc2c(=O)c(C(=O)O)cn(C3CC3)c12 [Compound 78, 7-[4-(2-Amino-1-fluoro-ethylidene)-3,3-dimethyl-piperidin-1-yl]-1-cyclopropyl-6-fluoro-8-methoxy-4-oxo-1,4-dihydro-quinoline-3-carboxylic acid] | 1 (≈ 2.23 µM) | 0.25 (≈ 0.559 µM) | 2 (≈ 4.47 µM) | 1 (≈ 2.23 µM) | – | – | – | – | –
NCC=C1CCN(c2nc3c(cc2F)c(=O)c(C(=O)O)cn3C2CC2)CC1O (centres unmarked) [Compound 60, 7-[4-(2-Amino-ethylidene)-3-hydroxy-piperidin-1-yl]-1-cyclopropyl-6-fluoro-4-oxo-1,4-dihydro-[1,8]naphthyridine-3-carboxylic acid] | 2 (≈ 5.15 µM) | 16 (≈ 41.2 µM) | – | 16 (≈ 41.2 µM) | – | – | – | – | –
NCC(C(=O)O)=C1CCN(c2nc3c(cc2F)c(=O)c(C(=O)O)cn3C2CC2)CC1 [Compound 286, 7-[4-(2-Amino-1-carboxy-ethylidene)-piperidin-1-yl]-1-cyclopropyl-6-fluoro-4-oxo-1,4-dihydro-[1,8]naphthyridine-3-carboxylic Acid] | 4 (≈ 9.61 µM) | 16 (≈ 38.4 µM) | – | > 16 | > 16 | – | – | – | –
NC/C(Cl)=C1\CCCN(c2cc3c(cc2F)c(=O)c(C(=O)O)cn3C2CC2)CC1 [Compound 386, (Z)-7-[4-(2-Amino-1-chloro-ethylidene)-azepan-1-yl]-1-cyclopropyl-6-fluoro-4-oxo-1,4-dihydro-quinoline-3-carboxylic acid] | 0.25 (≈ 0.595 µM) | 2 (≈ 4.76 µM) | – | 8 (≈ 19.1 µM) | 16 (≈ 38.1 µM) | – | – | – | –
